Values of other authors in patent US7226619B1, “Material for controlling diversion of medications” (PharmoRx Inc., priority 2004, dated 2007).
Where two headings read alike, the source gives them in different places.

Legend:
[1] = biological target: 2D6 component of the P450 metabolic system (Homo sapiens, UniProt P10635)
[2] = oxymorphone vs parent oxycodone; per Richard B. Patt, American Pain Society Bulletin 6(4), 1996

2D6 component of the P450 metabolic system, sequence (P10635 whole entry): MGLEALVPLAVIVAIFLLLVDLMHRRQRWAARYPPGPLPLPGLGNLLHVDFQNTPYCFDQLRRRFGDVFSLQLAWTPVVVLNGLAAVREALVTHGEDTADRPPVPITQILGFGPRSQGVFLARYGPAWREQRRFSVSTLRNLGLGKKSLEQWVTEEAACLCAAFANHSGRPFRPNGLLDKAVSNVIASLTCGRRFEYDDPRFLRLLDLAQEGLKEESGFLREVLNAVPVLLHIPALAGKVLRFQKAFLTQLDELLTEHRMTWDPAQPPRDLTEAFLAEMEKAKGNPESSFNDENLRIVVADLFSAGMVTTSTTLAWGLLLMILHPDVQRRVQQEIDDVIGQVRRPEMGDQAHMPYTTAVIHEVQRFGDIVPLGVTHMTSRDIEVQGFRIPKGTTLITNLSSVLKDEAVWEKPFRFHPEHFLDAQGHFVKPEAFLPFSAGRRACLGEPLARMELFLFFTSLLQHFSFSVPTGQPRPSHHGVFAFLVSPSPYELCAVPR

SMILES | inhibitor of 2D6 (in words) ([1]; qualitative statement, no data) | inhibitor of 2D6 (in words) [1] | further results
COC(=O)C1=CO[C@@H](C)[C@H]2CN3CCc4c([nH]c5ccccc45)[C@@H]3C[C@H]12 [ajmalicine] | strong inhibitors | – | –
CN/C(=N/CCSCc1nc[nH]c1C)NC#N [cimetidine] | – | strong inhibitors | –
COc1ccc(CN(CCN(C)C)c2ccccn2)cc1 [mepyramine] | – | strong inhibitors | –
CN1CC[C@]23c4c5ccc(O)c4O[C@H]2C(=O)CC[C@@]3(O)[C@H]1C5 [oxymorphone] | – | – | effectiveness as an agonist relative to oxycodone [2]: at least 10 times
Fc1ccc([C@@H]2CCNC[C@H]2COc2ccc3c(c2)OCO3)cc1 [paroxetine] | strong inhibitors | – | –
C=C[C@H]1C[N@@]2CC[C@H]1C[C@@H]2[C@@H](O)c1ccnc2ccc(OC)cc12 [quinidine] | strong inhibitors | – | –
COC(=O)[C@H]1[C@H]2C[C@@H]3c4[nH]c5cc(OC)ccc5c4CCN3C[C@H]2C[C@@H](OC(=O)c2cc(OC)c(OC)c(OC)c2)[C@@H]1OC [reserpine] | – | strong inhibitors | –
